Data from patent US4208531A, “Synthetic aminoglycosides” (priority 1976, dated 1980).
In brackets after ≈: the same amount, converted by molar mass. Like-named read-outs stand apart in the source and are kept apart here.

Tests used:
Experiment in all cases: MIC, Steers agar-dilution method, Mueller-Hinton
Format in all cases: cell-based
[1] = tested on: Proteus mirabilis
Source text: (§1) Illustrated below is a table showing the minimal inhibitory concentrations (MIC's) of Kanamycin A together with those of one of the trisaccharides synthesized (Example I) against a variety of Gram-positive and Gram-negative bacteria as obtained by the Steers agar-dilution method with Mueller-Hinton agar medium.
(§2) In vitro activity of Kanamycin A and compound (Example LI). MIC's in
(§3) MuellerHinton broth pH 7.2.

[2] = tested on: Escherichia coli R 1513; conditions: R1513, MuellerHinton broth pH 7.2
Source text: as §1, §2, §3

[3] = tested on: Salmonella tiphymurium
Source text: as §1, §2, §3

[4] = tested on: Staphylococcus pyogenes Smith A; conditions: Staphylococcus aureus
Source text: as §1, §2, §3

[5] = tested on: Salmonella sui-pestifer
Source text: as §1, §2, §3

[6] = tested on: Pseudomonas aeruginosa I.A.
Source text: as §1, §2, §3

[7] = tested on: Micrococcus pyogenes aureus 6539 P; conditions: Staphylococcus aureus, AUREUS6539P
Source text: as §1, §2, §3

[8] = tested on: Proteus morganii; conditions: Morganella morganii
Source text: as §1, §2, §3

[9] = tested on: Pseudomonas aeruginosa s.p.
Source text: as §1, §2, §3

[10] = tested on: Pseudomonas aeruginosa D 15
Source text: as §1, §2, §3

[11] = tested on: Proteus rettgeri; conditions: Providencia rettgeri
Source text: as §1, §2, §3

NCC1OC(OC2C(N)CC(N)C(OC3OC(CO)C(O)C(N)C3O)C2O)C(O)C(O)C1O (stereo not shown) [Kanamycin A]
MIC ([1]; pH 7.2): 2 mg/L (≈ 4.13 µM) | MIC [2]: 100 mg/L (≈ 206 µM) | MIC ([3]; Salmonella, pH 7.2): 100 mg/L (≈ 206 µM) | MIC ([4]; pH 7.2): 0.8 mg/L (≈ 1.65 µM) | MIC ([5]; Salmonella, pH 7.2): 32 mg/L (≈ 66 µM) | MIC ([6]; Pseudomonas aeruginosa, pH 7.2): 100 mg/L (≈ 206 µM) | MIC ([7]; pH 7.2): 0.8 mg/L (≈ 1.65 µM) | MIC ([8]; pH 7.2): 0.8 mg/L (≈ 1.65 µM) | MIC ([9]; Pseudomonas aeruginosa, pH 7.2): 100 mg/L (≈ 206 µM) | MIC ([10]; Pseudomonas aeruginosa, D15, pH 7.2): 25 mg/L (≈ 51.6 µM) | MIC ([11]; pH 7.2): 0.4 mg/L (≈ 0.826 µM)

NCC1OC(OC2CCC(OC3C(N)CC(N)C(O)C3O)OC2CN)CCC1O (stereo not drawn) [Example LI, 4-O-[4-O-(6-amino-2,3,6-trideoxy-α-O-erythro-hexopyranosyl)-6-amino-2,3,6-trideoxy-αO-erythro-hexopyranosyl]-2-deoxystreptamine disulphate]
MIC ([1]; MuellerHinton broth pH 7.2, read-out: MIC): 0.4 mg/L | MIC [2]: 32 mg/L | MIC ([3]; Salmonella tiphymurium, MuellerHinton broth pH 7.2, read-out: MIC): 32 mg/L | MIC ([4]; Staphylococcus pyogenes Smith A, MuellerHinton broth pH 7.2, read-out: MIC): 0.4 mg/L | MIC ([5]; Salmonella sui-pestifer, MuellerHinton broth pH 7.2, read-out: MIC): 32 mg/L | MIC ([6]; Pseudomonas aeruginosa I.A., MuellerHinton broth pH 7.2, read-out: MIC): 32 mg/L | MIC ([7]; Micrococcus pyogenes aureus 6539 P, MuellerHinton broth pH 7.2, read-out: MIC): 0.4 mg/L | MIC ([8]; Proteus morganii, MuellerHinton broth pH 7.2, read-out: MIC): 0.2 mg/L | MIC ([9]; Pseudomonas aeruginosa s.p., MuellerHinton broth pH 7.2, read-out: MIC): 16 mg/L | MIC ([10]; D15, Pseudomonas aeruginosa D 15, MuellerHinton broth pH 7.2, read-out: MIC): 8 mg/L | MIC ([11]; Proteus rettgeri, MuellerHinton broth pH 7.2, read-out: MIC): 0.2 mg/L
